ChEMBL document CHEMBL1138445, “Design and synthesis of potent inhibitors of cholesteryl ester transfer protein (CETP) exploiting a 1,2,3,4-tetrahydroquinoline platform” (Bioorg Med Chem Lett, 2009)

Each compound was assayed against T1, Cholesteryl ester transfer protein (Homo sapiens) (UniProt P11597) (assay: Inhibition of human plasma derived CETP relative to control). Conditions: concentration not given here.
T1 sequence (whole entry): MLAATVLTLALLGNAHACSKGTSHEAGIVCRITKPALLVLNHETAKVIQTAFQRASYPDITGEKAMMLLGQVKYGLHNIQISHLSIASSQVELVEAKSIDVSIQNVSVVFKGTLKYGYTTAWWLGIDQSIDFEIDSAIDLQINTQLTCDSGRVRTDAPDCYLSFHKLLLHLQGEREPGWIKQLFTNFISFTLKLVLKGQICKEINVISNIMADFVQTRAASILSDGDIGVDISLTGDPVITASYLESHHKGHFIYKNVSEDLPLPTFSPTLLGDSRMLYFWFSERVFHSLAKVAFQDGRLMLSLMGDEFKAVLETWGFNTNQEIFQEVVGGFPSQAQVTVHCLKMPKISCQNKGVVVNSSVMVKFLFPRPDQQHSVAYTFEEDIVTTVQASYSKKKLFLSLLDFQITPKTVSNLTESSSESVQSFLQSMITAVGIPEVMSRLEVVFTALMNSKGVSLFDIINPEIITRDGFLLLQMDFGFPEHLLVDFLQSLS
Set-up: concentration or dose not given beside the values

Structure (SMILES)	inhibition
O[C@@H](CN1c2cccc(-c3cccc(OC(F)(F)F)c3)c2CC[C@H]1c1cccc(OC(F)(F)F)c1)C(F)(F)F	20%
O[C@H](CN1c2cccc(-c3cccc(OC(F)(F)F)c3)c2CC[C@H]1c1cccc(OC(F)(F)F)c1)C(F)(F)F	46%
OC(CN1c2cccc(-c3cccc(OC(F)(F)F)c3)c2CCC1c1cccc(OC(F)(F)C(F)F)c1)C(F)(F)F (single isomer, unassigned; 19)	100%
OC(CN1c2cccc(-c3cccc(OC(F)(F)F)c3)c2CCC1c1cccc(OC(F)(F)C(F)F)c1)C(F)(F)F (single isomer, unassigned; 20)	86%
OC(CN1c2cccc(-c3cccc(OC(F)(F)F)c3)c2CCC1c1cccc(OC(F)(F)C(F)F)c1)C(F)(F)F (single isomer, unassigned; 38)	9%
OC(CN1c2cccc(-c3cccc(OC(F)(F)F)c3)c2CCC1c1cccc(OC(F)(F)C(F)F)c1)C(F)(F)F (single isomer, unassigned; 39)	0%
CCC1CCc2c(-c3cccc(OC(F)(F)F)c3)cccc2N1CC(O)C(F)(F)F (single isomer, unassigned; diastereomer 1)	44%
CCc1cc(Oc2cccc3c2CCC(c2cccc(OC(F)(F)C(F)F)c2)N3CC(O)C(F)(F)F)ccc1Cl (single isomer, unassigned; diastereomer 1)	62%
COCC(O)CN1c2cccc(-c3cccc(OC(F)(F)F)c3)c2CCC1c1cccc(OC(F)(F)F)c1 (single isomer, unassigned; diastereomer 1)	13%
COc1cccc(-c2cccc3c2CCC(c2cccc(OC(F)(F)C(F)F)c2)N3CC(O)C(F)(F)F)c1 (single isomer, unassigned; diastereomer 1)	68%
N#Cc1cccc(-c2cccc3c2CCC(c2cccc(OC(F)(F)C(F)F)c2)N3CC(O)C(F)(F)F)c1 (single isomer, unassigned; diastereomer 1)	85%
OC(CCl)CN1c2cccc(-c3cccc(OC(F)(F)F)c3)c2CCC1c1cccc(OC(F)(F)F)c1 (single isomer, unassigned; diastereomer 1)	56%
OC(CF)CN1c2cccc(-c3cccc(OC(F)(F)F)c3)c2CCC1c1cccc(OC(F)(F)F)c1 (single isomer, unassigned; diastereomer 1)	70%
OC(CN1c2cccc(-c3cccc(C(F)(F)F)c3)c2CCC1c1cccc(OC(F)(F)C(F)F)c1)C(F)(F)F (single isomer, unassigned; diastereomer 1)	93%
OC(CN1c2cccc(-c3cccc(Cl)c3)c2CCC1c1cccc(OC(F)(F)C(F)F)c1)C(F)(F)F (single isomer, unassigned; diastereomer 1)	67%
OC(CN1c2cccc(-c3cccc(F)c3)c2CCC1c1cccc(OC(F)(F)C(F)F)c1)C(F)(F)F (single isomer, unassigned; diastereomer 1)	93%
OC(CN1c2cccc(-c3cccc(OC(F)(F)F)c3)c2CCC1C1CCCCC1)C(F)(F)F (single isomer, unassigned; diastereomer 1)	11%
OC(CN1c2cccc(-c3cccc(OC(F)(F)F)c3)c2CCC1c1ccc(OC(F)(F)C(F)F)cc1)C(F)(F)F (single isomer, unassigned; diastereomer 1)	5%
OC(CN1c2cccc(-c3cccc(OC(F)(F)F)c3)c2CCC1c1ccccc1)C(F)(F)F (single isomer, unassigned; diastereomer 1)	21%
OC(CN1c2cccc(-c3cccc(OC(F)(F)F)c3)c2CCC1c1cccs1)C(F)(F)F (single isomer, unassigned; diastereomer 1)	28%

Structure (SMILES)	inhibition
CC(C)C(O)CN1c2cccc(-c3cccc(OC(F)(F)F)c3)c2CCC1c1cccc(OC(F)(F)F)c1 (single isomer, unassigned; diastereomer 2)	22%
CCC1CCc2c(-c3cccc(OC(F)(F)F)c3)cccc2N1CC(O)C(F)(F)F (single isomer, unassigned; diastereomer 2)	12%
CCc1cc(Oc2cccc3c2CCC(c2cccc(OC(F)(F)C(F)F)c2)N3CC(O)C(F)(F)F)ccc1Cl (single isomer, unassigned; diastereomer 2)	86%
COc1cccc(-c2cccc3c2CCC(c2cccc(OC(F)(F)C(F)F)c2)N3CC(O)C(F)(F)F)c1 (single isomer, unassigned; diastereomer 2)	38%
N#Cc1cccc(-c2cccc3c2CCC(c2cccc(OC(F)(F)C(F)F)c2)N3CC(O)C(F)(F)F)c1 (single isomer, unassigned; diastereomer 2)	21%
OC(CCl)CN1c2cccc(-c3cccc(OC(F)(F)F)c3)c2CCC1c1cccc(OC(F)(F)F)c1 (single isomer, unassigned; diastereomer 2)	0%
OC(CF)CN1c2cccc(-c3cccc(OC(F)(F)F)c3)c2CCC1c1cccc(OC(F)(F)F)c1 (single isomer, unassigned; diastereomer 2)	13%
OC(CN1c2cccc(-c3cccc(C(F)(F)F)c3)c2CCC1c1cccc(OC(F)(F)C(F)F)c1)C(F)(F)F (single isomer, unassigned; diastereomer 2)	37%
OC(CN1c2cccc(-c3cccc(Cl)c3)c2CCC1c1cccc(OC(F)(F)C(F)F)c1)C(F)(F)F (single isomer, unassigned; diastereomer 2)	55%
OC(CN1c2cccc(-c3cccc(Cl)c3Cl)c2CCC1c1cccc(OC(F)(F)C(F)F)c1)C(F)(F)F (single isomer, unassigned; diastereomer 2)	86%
OC(CN1c2cccc(-c3cccc(F)c3)c2CCC1c1cccc(OC(F)(F)C(F)F)c1)C(F)(F)F (single isomer, unassigned; diastereomer 2)	52%
OC(CN1c2cccc(-c3cccc(OC(F)(F)F)c3)c2CCC1c1cccc(C(F)(F)F)c1)C(F)(F)F (single isomer, unassigned; diastereomer 2)	37%
OC(CN1c2cccc(-c3cccc(OC(F)(F)F)c3)c2CCC1c1ccccc1)C(F)(F)F (single isomer, unassigned; diastereomer 2)	6%
OC(CN1c2cccc(-c3cccc(OC(F)(F)F)c3)c2CCC1c1cccs1)C(F)(F)F (single isomer, unassigned; diastereomer 2)	12%
CC(C)C(O)CN1c2cccc(-c3cccc(OC(F)(F)F)c3)c2CCC1c1cccc(OC(F)(F)F)c1 (single isomer, unassigned; form 1)	79%
OC(CN1c2cccc(-c3cccc(OC(F)(F)F)c3)c2CCC1C1CCCCC1)C(F)(F)F (single isomer, unassigned; form 1)	2%
CC(C)C(O)CN1c2cccc(-c3cccc(OC(F)(F)F)c3)c2CCC1c1cccc(OC(F)(F)F)c1 (single isomer, unassigned; form 2)	0%
OC(CN1c2cccc(-c3cccc(OC(F)(F)F)c3)c2CCC1C1CCCCC1)C(F)(F)F (single isomer, unassigned; form 2)	13%
OC(CN1c2cccc(-c3cccc(Cl)c3Cl)c2CCC1c1cccc(OC(F)(F)C(F)F)c1)C(F)(F)F (stereo in doubt; 17)	67%
OC(CN1c2cccc(-c3cccc(OC(F)(F)F)c3)c2CCC1c1ccc(OC(F)(F)C(F)F)cc1)C(F)(F)F (stereo in doubt; 41)	14%
